Source: patent US7683077B2, “Piperidine derivative” (Ajinomoto Co., Inc., priority 2003, dated 2010)

Molecular target: T1, Human 5-HT7a receptor (Homo sapiens, UniProt P34969)
T1 construct: host or cells: CHO-K1 (h5HT7-C1 cells)
Assay: Receptor binding assay (RBA) using 5HT-7 expression cells
Details: not given
Protocol: Receptor Binding Assay (RBA) Using 5HT-7 Expression Cells
Human 5-HT7a receptor expression CHO—K1 cells (Euroscreen; h5HT7-C1 cells, No. ES-317-C) were cultured in an incubator (CO2: 5%) at 37° C., using Ham's F-12 culture medium containing 400 μg/ml G418, 100 U/ml penicillin, 100 μg/ml streptomycin, and 10% fetal bovine serum. After removal of the culture medium, the cells were washed with phosphate-buffered saline (PBS(−)) free of Ca^2+ and Mg^2+, and then peeled away from a petri dish using HMEE buffer (20 mM HEPES-KOH (pH7.4), 1 mM EDTA, 1 mM EGTA, 2 mM MgCl2). The cells thus collected were homogenized on ice using a Teflon homogenizer, centrifuged at 1,500×g for 5 minutes at 4° C., and the resultant supernatant liquid was then recovered. The supernatant liquid was further centrifuged at 12,000×g for 30 minutes at 4° C. The resultant precipitate was suspended in a HMEE buffer and the resultant suspension was dispensed and flash-frozen in liquid nitrogen. Thus, the frozen product was maintained at −80° C. and melted at room temperature when used in practice. In a 96-well polystyrene round-bottom plate (Falcon, No. 351190), a membrane preparation, the test compound, and 2-[^125I]-(+)-iodo-lysergic acid diethylamide (Perkin Elmer Life Science, No. NEX199) were reacted at room temperature for 3 hours in 50 μL of a binding buffer (50 mM HEPES-NaOH (pH7.4), 1 mM CaCl2, 5 mM MgCl2, 0.5% BSA) in each well. After completion of the reaction, the mixture was trapped by suction into a 96-well GF/B Unifilter plate (Perkin Elmer Life Science, No. 6005177), 50 μL of 0.05% polyethyleneimine being previously added to each well. Each well of the above-mentioned Unifilter plate was washed with about 200 μL of a washing buffer (50 mM HEPES-NaOH (pH7.4), 1 mM CaCl2, 5 mM MgCl2, 0.5 M NaCl, 0.05% Tween-20) three times, and dried overnight. Then, 30 μL of Microscint (Packard, No. NR6013611) was added to each well. The amount of bound 2-[^125I]-(+)-iodo-lysergic acid diethylamide was determined using Top Counter (Packard). The count obtained when 100 μM of crozapine was used as the test compound was fixed at 0%, while the count obtained when no compound was added was fixed at 100%. The binding ratios of 2-[^125I]-(+)-iodo-lysergic acid diethylamide obtained at varied concentrations of the compound were expressed by percentage (%), and the relationship between the concentration of each compound and the binding ratio (%) was approximated to a sigmoid curve. A concentration of the compound corresponding to the binding ratio 50% of 2-[^125I]-(+)-iodo-lysergic acid diethylamide was defined as the value of IC50.

T1 sequence (P34969 1-445 isoform P34969-2): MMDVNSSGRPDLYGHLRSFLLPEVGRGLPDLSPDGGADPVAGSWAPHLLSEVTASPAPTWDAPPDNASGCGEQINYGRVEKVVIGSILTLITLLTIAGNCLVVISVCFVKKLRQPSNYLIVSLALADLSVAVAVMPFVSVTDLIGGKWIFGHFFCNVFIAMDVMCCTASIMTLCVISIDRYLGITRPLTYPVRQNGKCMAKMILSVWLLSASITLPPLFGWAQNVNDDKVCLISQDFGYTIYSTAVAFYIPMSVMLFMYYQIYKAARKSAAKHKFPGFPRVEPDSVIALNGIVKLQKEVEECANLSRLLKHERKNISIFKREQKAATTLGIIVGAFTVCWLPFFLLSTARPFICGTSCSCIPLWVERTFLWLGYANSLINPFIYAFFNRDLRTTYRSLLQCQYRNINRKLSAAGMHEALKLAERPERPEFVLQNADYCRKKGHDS

Row | SMILES | IC50
1 | COc1ccccc1C(=C1CCN(C)CC1)c1ccc(Cl)c(Cl)c1 [Example 54] | 31.6 nM
2 | CCN1CCC(=C(c2cccc(Cl)c2)c2cc(OC)ccc2OC)CC1 [Example 58] | 15.8 nM

Same assay, conditions: displacement of 2-[125I]-(+)-iodo-lysergic acid diethylamide, membranes of human 5-HT7a CHO-K1 cells; read-out: pIC50 (converted)

Row | SMILES | IC50
3 | CCCN1CCC(=C(c2cccc(Cl)c2)c2ccccc2OC)CC1 [Example 7] | 31.6 nM
4 | COc1ccc(OC)c(C(=C2CCNCC2)c2cccc(Cl)c2)c1 [Example 4] | 20 nM
5 | CCCCN1CCC(=C(c2cccc(Cl)c2)c2cc(OC)ccc2OC)CC1 [Example 60] | 100 nM

The remaining lines, values ahead:

Row | IC50 | SMILES
6 | 39.8 nM | COc1ccccc1C(=C1CCN(C)CC1)c1ccc(Cl)s1 [Example 55]
7 | 39.8 nM | COc1ccccc1C(=C1CCN(C)CC1)c1ccc(C)s1 [Example 56]
8 | 31.6 nM | COc1ccc(C)cc1C(=C1CCN(C)CC1)c1cccc(Cl)c1 [Example 57]
9 | 10 nM | COc1ccccc1C(=C1CCN(CCNS(=O)(=O)c2cc(Cl)ccc2Cl)CC1)c1cccc(Cl)c1 [Example 49]
10 | 39.8 nM | COc1ccccc1C(=C1CCN(C)CC1)c1cccc(Cl)c1 [Example 1]
11 | 100 nM | COc1ccccc1C(=C1CCN(CCCNC(=O)OC(C)(C)C)CC1)c1cccc(Cl)c1 [Example 36]

Molecular target: T2, Human 5HT-7 (Homo sapiens, UniProt P34969)
T2 construct: host or cells: CHO-K1 (h5HT7-C2 cells)
T2 sequence (P34969 1-445 isoform P34969-2): as above
Assay: Evaluation of 5HT-7 agonist activity using 5HT-7 expression cells (cAMP)
Assay type: cell-based
Details: cAMP in h5HT7-C2 CHO-K1 cells; 10 μM serotonin = 100%
Protocol: Evaluation of 5HT-7 Agonist Activity Using 5HT-7 Expression Cells
Then, the cAMP concentration was determined using a cAMP EIA kit (RPN225, Amersham) by the method in conformity of the attached protocol (Protocol 2. Acetylation EIA Procedure). […] The cAMP concentrations obtained with varied concentrations of the compound were expressed by percentage (%), and the relationship between the concentration of each compound and the cAMP (%) was approximated to a sigmoid curve. A concentration of the compound corresponding to the cAMP value that is a half the maximum value (Emax) on the approximated sigmoid curve was defined as the value of EC50.

Row | SMILES | EC50
12 | COc1ccc(OC)c(C(=C2CCNCC2)c2cccc(Cl)c2)c1 [Example 4] | 87 nM
